Patent US20080064718A1, “INHIBITORS OF PROTEIN TYROSINE KINASE ACTIVITY” (priority 2006, published 2008)
pIC50: −log10 of the molar value.

Legend:
DU145 = DU145 scattering; assay type: cell-based; conditions: Homo sapiens, DU-145; DU145 cells; read-out: CMET DU145 SCATT HEAL- IC50 UM
VEGF receptor KDR = target: T1, VEGF receptor KDR (Homo sapiens, UniProt P35968); experiment: In vitro receptor tyrosine kinase assay, VEGF receptor KDR (DELFIA); assay type: biochemical; conditions: GST-VEGFR2 806-1356, ATP 0.6 uM; read-out: VEGFR IC50
T1 construct: made in house; host or cells: Sf9 cells (Spodoptera frugiperda), recombinant baculovirus
Excerpt: In the case of VEGF receptor KDR a 1.6-kb cDNA corresponding to the catalytic domain of VEGFR2 or KDR (Genbank accession number AF035121 amino acid 806 to 1356) is cloned into the Pst I site of the pDEST20 Gateway vector (Invitrogen) for the production of a GST-tagged version of that enzyme.
The GST-VEGFR2806-1356 protein is expressed in Sf9 cells (Spodoptera frugiperda) upon infection with recombinant baculovirus construct.
The supernatant is loaded onto a GST-agarose column (Sigma) equilibrated with PBS pH 7.3. Following a four column volume (CV) wash with PBS pH 7.3+1% Triton X-100 and 4 CV wash with buffer B (50 mM Tris pH 8.0, 20% glycerol and 100 mM NaCl), bound proteins are step eluted with 5 CV of buffer B supplemented with 5 mM DTT and 15 mM glutathion. […] Final GST-VEGFR2806-1356 protein preparations concentrations are about 0.7 mg/ml with purity approximating 70%.

A549 = A549 inhibition of wound healing; assay type: cell-based; conditions: Homo sapiens; A549 cells; read-out: A549 INHIB WND ING IC50 UM
[1] = target: recombinant human c-Met/HGF receptor (Homo sapiens, UniProt P08581); experiment: In vitro receptor tyrosine kinase assay, c-Met/HGF receptor (DELFIA)
c-Met = target: T2, c-Met (Homo sapiens, UniProt P08581); experiment: c-Met phosphorylation direct ELISA in MKN45 cells; assay type: cell-based; conditions: 3 h treatment
T2 construct: endogenous in cells; host or cells: MKN45 gastric carcinoma cells
Procedure: Alternatively, the following assay is used to determine inhibition of c-Met phosphorylation.
The c-Met receptor is expressed in numerous cancer cell lines derived from tumors of epithelial origin. In MKN45 gastric carcinoma cells the c-Met gene is amplified, resulting in several-fold overexpression of the receptor and its constitutive activation.
Cell treatments: MKN45 cells are seeded into wells of 96-well plates at a density of 3×10^4 cells/well in RPMI medium supplemented with 10% FBS. […] Inhibitors are added to the medium in triplicate wells at the indicated doses.
After an overnight protein binding incubation at 4° C., lysates are aspirated and wells are blocked for 1 h at 37° C. in TBST supplemented with 5% BSA. Plates are incubated with the primary antibodies anti-phospho-Tyrosine (Millipore, 4G10) diluted 1/15000 in TBST supplemented with 5% BSA for 1 h at room temperature. Plates are washed 3 times on a plate washer (SkanWasher, Molecular Devises), and incubated with the reporter antibody […] (Sigma) diluted 1/15000 in TBST supplemented with 5% BSA, for 1 h at room temperature. Plates are washed 3 times with TBST using on a plate washer and subsequently incubated with chemiluminescent substrate solution (ECL, Roche). Luminescence signal is captured on a Polar Star Optima apparatus (BMG LabTech).
Average values of the triplicate samples are used to prepare IC50 curves using a 4-parameter fit model. These curves are calculated using, for example, GraFit 5.0 software. For assay standardization purpose, an internal control is included on each experimental test plate.

recombinant human c-Met/HGF receptor, sequence (P08581 1078-1337): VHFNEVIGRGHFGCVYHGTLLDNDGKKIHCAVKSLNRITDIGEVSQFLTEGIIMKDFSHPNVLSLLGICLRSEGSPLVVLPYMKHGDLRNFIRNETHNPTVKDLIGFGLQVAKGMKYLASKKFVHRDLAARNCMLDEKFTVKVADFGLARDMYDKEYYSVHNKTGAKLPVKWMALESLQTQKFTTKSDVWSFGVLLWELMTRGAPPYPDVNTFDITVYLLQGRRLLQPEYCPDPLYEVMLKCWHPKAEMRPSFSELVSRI
T1 sequence (P35968 806-1356): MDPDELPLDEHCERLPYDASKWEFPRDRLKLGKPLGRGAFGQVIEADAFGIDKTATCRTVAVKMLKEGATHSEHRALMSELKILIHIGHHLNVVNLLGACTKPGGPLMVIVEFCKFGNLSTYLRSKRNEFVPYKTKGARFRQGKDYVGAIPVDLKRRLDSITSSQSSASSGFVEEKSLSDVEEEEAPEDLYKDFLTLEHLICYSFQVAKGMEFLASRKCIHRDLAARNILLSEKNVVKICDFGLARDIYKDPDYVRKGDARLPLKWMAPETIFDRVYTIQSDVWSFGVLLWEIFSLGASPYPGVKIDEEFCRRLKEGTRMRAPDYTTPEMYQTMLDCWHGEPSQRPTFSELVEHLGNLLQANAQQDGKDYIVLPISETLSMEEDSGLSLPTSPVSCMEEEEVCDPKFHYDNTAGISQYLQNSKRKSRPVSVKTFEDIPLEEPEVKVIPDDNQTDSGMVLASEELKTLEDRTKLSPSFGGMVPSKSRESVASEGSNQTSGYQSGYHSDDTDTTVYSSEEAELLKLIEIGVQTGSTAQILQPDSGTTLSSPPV
T2 sequence (P08581 25-1390): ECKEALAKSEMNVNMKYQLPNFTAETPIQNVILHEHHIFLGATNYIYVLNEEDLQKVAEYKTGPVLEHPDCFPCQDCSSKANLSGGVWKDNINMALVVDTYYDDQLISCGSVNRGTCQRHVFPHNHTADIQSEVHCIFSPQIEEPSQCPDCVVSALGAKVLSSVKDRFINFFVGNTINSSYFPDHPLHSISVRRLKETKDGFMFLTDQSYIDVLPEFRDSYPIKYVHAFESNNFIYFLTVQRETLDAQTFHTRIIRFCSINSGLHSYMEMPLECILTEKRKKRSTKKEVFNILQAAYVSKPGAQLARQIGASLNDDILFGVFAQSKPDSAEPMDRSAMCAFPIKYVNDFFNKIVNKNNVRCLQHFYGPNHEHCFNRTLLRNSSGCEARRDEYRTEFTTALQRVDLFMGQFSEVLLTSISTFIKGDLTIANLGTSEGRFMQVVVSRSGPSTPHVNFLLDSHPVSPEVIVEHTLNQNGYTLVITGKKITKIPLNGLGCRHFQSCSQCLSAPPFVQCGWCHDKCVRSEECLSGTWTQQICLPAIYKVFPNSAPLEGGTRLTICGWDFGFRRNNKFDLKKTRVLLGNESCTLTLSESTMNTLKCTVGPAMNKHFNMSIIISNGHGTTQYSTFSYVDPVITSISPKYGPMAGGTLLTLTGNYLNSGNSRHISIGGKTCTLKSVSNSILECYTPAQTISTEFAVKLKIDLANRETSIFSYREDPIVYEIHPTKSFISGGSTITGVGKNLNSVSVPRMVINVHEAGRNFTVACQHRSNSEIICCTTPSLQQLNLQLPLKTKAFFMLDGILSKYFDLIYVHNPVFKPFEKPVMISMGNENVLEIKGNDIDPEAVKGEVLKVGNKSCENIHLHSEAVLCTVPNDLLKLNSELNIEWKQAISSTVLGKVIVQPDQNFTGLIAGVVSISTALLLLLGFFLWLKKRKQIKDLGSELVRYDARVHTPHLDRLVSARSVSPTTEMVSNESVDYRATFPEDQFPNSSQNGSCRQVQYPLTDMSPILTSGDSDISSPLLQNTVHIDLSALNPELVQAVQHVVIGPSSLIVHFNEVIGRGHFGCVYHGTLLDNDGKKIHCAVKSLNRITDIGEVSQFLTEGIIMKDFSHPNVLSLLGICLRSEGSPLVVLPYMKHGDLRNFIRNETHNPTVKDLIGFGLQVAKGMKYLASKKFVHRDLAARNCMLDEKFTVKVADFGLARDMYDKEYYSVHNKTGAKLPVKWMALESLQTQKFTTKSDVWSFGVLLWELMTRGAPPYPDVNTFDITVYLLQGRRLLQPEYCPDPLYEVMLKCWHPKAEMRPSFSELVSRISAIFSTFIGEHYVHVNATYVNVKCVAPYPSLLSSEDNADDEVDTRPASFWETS

pIC50 (DU145)	pIC50 (VEGF receptor KDR)	pIC50 (A549)	pIC50 [1]	pIC50 (c-Met)	Structure (SMILES)
< 6.00	> 6.60	6.30 to 6.60	> 6.60	6.00 to 6.30	Cn1ccnc1-c1cc2nccc(Oc3ccc(NC(=O)c4cccc(-c5ccccc5)c4F)cc3F)c2s1
< 6.00	< 6.00	< 6.00	> 6.60	< 6.00	O=C(O)c1ccc(-c2cc3nccc(Oc4ccc(NC(=O)c5cnn(-c6ccccc6)c5C(F)(F)F)cc4F)c3s2)nc1
